From patent publication US11091486B2, “Process for the preparation of pyrazolo[1,5-a]pyrimidines and salts thereof” (Array BioPharma Inc., priority 2016, dated 2021)
≈ marks a conversion by molar mass, not a printed value. Entries after “also recorded” stand apart in the source; their conditions may differ. Like-named read-outs stand apart in the source and are kept apart here.

Legend:
Assay type in all cases: physicochemical
[1] = Salt stability studies, 40° C./75% RH for 1 week, XRPD
Experimental: Recovered salts were placed in an oven at 40° C./75% RH for 1 week, and the resultant materials were analyzed by XRPD to determine any changes to form or crystallinity.

[2] = Thermodynamic solubility of prepared salts
Experimental: Thermodynamic solubility studies were carried out as follows: 10 mg of prepared salts were suspended in pH 1, 4.5, 6.8 and un-buffered water (300 μL). The pH of the slurries was measured and adjusted accordingly using either 0.2M HCl solution or 0.2M sodium hydroxide solution. The slurries were agitated for 24 hours at ambient temperature using an incubator shaker.

[3] = Dynamic vapor sorption (DVS); details: for Hygroscopicity, mass uptake by DVS: at 90% RH; for Crystalline form by XRPD after exposure to DVS humidity conditions: post-DVS XRPD
Experimental: Approximately, 10 mg of sample was placed into a mesh vapor sorption balance pan and loaded into a DVS-1 dynamic vapor sorption balance by Surface Measurement Systems. The sample was subjected to a ramping profile from 40-90% relative humidity (RH) at 10% increments, maintaining the sample at each step until a stable weight had been achieved (99.5% step completion). After completion of the sorption cycle, the sample was dried using the same procedure to 0% RH and then a second sorption cycle back to 40% RH. The weight change during the sorption/desorption cycles were plotted, allowing for the hygroscopic nature of the sample to be determined. XRPD analysis was then carried out on any solid retained.

[4] = 1-week stability tests (40° C./75% RH, 80° C., ambient light), XRPD and UPLC
Excerpt: Compound 1 (Form I) was subjected to various different environmental conditions to assess stability.

[5] = Salt disproportionation studies; details: deionized water, 24 h at ambient temperature
Experimental: Salt disproportionation studies were carried out as follows: 20 mg of prepared salts were weighed into a vial and 0.5 mL of deionized water was added. The samples were then agitated for 24 h at ambient temperature. The pH of the samples was taken pre- and post-agitation. Any solids recovered were submitted for XRPD analysis to determine any changes to form.

[6] = Hydration screen in acetone/water mixtures; details: 24 hr
Experimental: Hydration screen was carried out as follows: 10 mg of prepared salts were suspended in several acetone/water mixtures of various water activities (low: aw=0.281, medium: aw=0.776 and high: aw=0.919) and agitated at ambient temperatures for 24 hr. Any recovered solids were submitted for XRPD analysis to determine any changes to form.

[7] = Approximate solvent solubility of amorphous Compound 1 free base by solvent addition (Example 1); details: for solubility: organic solvent or mixture, thermodynamic from solid, read-out: Approx. Solubility
Experimental: A solid Compound 1 was obtained as follows. A […] of solution containing about 330 mg of Compound 1 in warm 1,4-dioxane was divided between 33, 2 mL glass vials (1.5 mL in each). The solutions were frozen and freeze-dried by lyophilization overnight. The resulting material was then analyzed by XRPD to confirm mostly amorphous material.
Approximately 10 mg of amorphous Compound 1 was produced in 32×2 mL glass vials from freeze drying and 100 μL of the appropriate solvent system was added to the appropriate vial. Between each addition, the mixture was checked for dissolution and if no dissolution was apparent, the mixture was heated to about 40° C. and checked again. This procedure was continued until dissolution was observed or until 2 mL had been added (to the compound concentration of <5 mg/mL).

[8] = Gravimetric vapor sorption (GVS)
Experimental: Approximately 10-20 mg of sample was placed into a mesh vapor sorption balance pan and loaded into an IGASorp Moisture Sorption Analyzer balance by Hiden Analytical. […] After completion of the sorption cycle, the sample was dried using the same procedure to 0% RH, and finally taken back to the starting point of 40% RH. The weight change during the sorption/desorption cycles were plotted, allowing for the hygroscopic nature of the sample to be determined.

[9] = salt recovered from isopropanol

C[C@@H]1CCc2ncc(F)cc2[C@H]2CCCN2c2ccn3ncc(c3n2)C(=O)N1.Cc1ccc(S(=O)(=O)O)cc1
Post-stability XRPD: changes to form or crystallinity ([1]; salt recovered from acetone): become amorphous

C[C@@H]1CCc2ncc(F)cc2[C@H]2CCCN2c2ccn3ncc(c3n2)C(=O)N1.O=S(=O)(O)c1ccccc1 [Compound 1 besylate]
Thermodynamic solubility in words ([2]; pH 1): highly soluble | Solid recovered from thermodynamic solubility slurry (XRPD) ([2]; pH 4.5): an unknown form | Thermodynamic solubility in words ([2]; pH 4.5): moderately soluble | Solid recovered from thermodynamic solubility slurry (XRPD) ([2]; pH 6.8): poorly crystalline free base | Thermodynamic solubility in words ([2]; pH 6.8): low solubility | Solid recovered from thermodynamic solubility slurry (XRPD) ([2]; unbuffered water): poorly crystalline free base | Thermodynamic solubility in words ([2]; unbuffered water): moderately soluble | Hygroscopicity, mass uptake by DVS [3]: about 0.7% | Crystalline form by XRPD after exposure to DVS humidity conditions [3]: no changes in crystalline form | 1-week stability test: change to form (XRPD) ([4]; 40° C./75% RH): appears to be a mixture of besylate salt and something else | 1-week stability test: change in purity (UPLC) ([4]; 80° C.): no change to purity | 1-week stability test: change to form (XRPD) ([4]; 80° C.): no change to form | 1-week stability test: change in purity (UPLC) ([4]; ambient light): no change to purity | 1-week stability test: change to form (XRPD) ([4]; ambient light): no change to form | Salt disproportionation: recovered material by XRPD [5]: poorly crystalline free base | Hydration study: recovered solid by XRPD ([6]; high water activity (aw=0.919)): poorly crystalline besylate salt | Hydration study: recovered solid by XRPD ([6]; low water activity (aw=0.281)): poorly crystalline besylate salt

C[C@@H]1CCc2ncc(F)cc2[C@H]2CCCN2c2ccn3ncc(c3n2)C(=O)N1.O=C(O)CC(O)(CC(=O)O)C(=O)O [Compound 1 citrate Form A]
Hygroscopicity, mass uptake by DVS [3]: around 1.8% | Post-stability XRPD: changes to form or crystallinity ([1]; salt recovered from TBME): a decrease to crystallinity but no change to form | Post-stability XRPD: changes to form or crystallinity ([1]; salt recovered from acetone): a decrease to crystallinity but no change to form

C[C@@H]1CCc2ncc(F)cc2[C@H]2CCCN2c2ccn3ncc(c3n2)C(=O)N1 [Compound 1, (6R,15R)-9-fluoro-15-methyl-2,11,16,20,21,24-hexaazapentacyclo[16.5.2.0^2,6.0^7,12.0^21,25]pentacosa-1(24),7,9,11,18(25),19,22-heptaen-17-one]
solubility ([7]; 1,2-Dimethoxyethane): 8.3 mg/mL (≈ 21.8 mM) | solubility ([7]; 1,4-Dioxane): 8.3 mg/mL (≈ 21.8 mM) | solubility ([7]; 1-butanol): 17 mg/mL (≈ 44.7 mM) | solubility ([7]; 2-Ethoxy ethanol): 50 mg/mL (≈ 131 mM) | solubility ([7]; 2-Propanol): 14.3 mg/mL (≈ 37.6 mM) | solubility ([7]; 2-butanone): 11.1 mg/mL (≈ 29.2 mM) | solubility ([7]; Acetone): 11.1 mg/mL (≈ 29.2 mM) | solubility ([7]; Acetonitrile): 12.5 mg/mL (≈ 32.9 mM) | solubility ([7]; Dimethylsulfoxide): 50 mg/mL (≈ 131 mM) | solubility ([7]; Ethanol): 20 mg/mL (≈ 52.6 mM) | solubility ([7]; Methanol): 50 mg/mL (≈ 131 mM) | solubility ([7]; Methylisobutyl ketone): 6.25 mg/mL (≈ 16.4 mM) | solubility ([7]; Tetrahydrofuran, 40 °C): 20 mg/mL (≈ 52.6 mM) | solubility ([7]; anisole): 11.1 mg/mL (≈ 29.2 mM) | Solvent solubility in words ([7]; non-polar solvents such as toluene and 1,4-dioxane): low solubility | solubility ([7]; Diglyme (bis(2-methoxyethyl ether))): 8.3 mg/mL (≈ 21.8 mM) | Solvent solubility in words ([7]; polar aprotic solvents such as acetone, ethyl acetate and acetonitrile): medium solubility | Solvent solubility in words ([7]; polar solvents such as DMSO, DMF and protic solvents such as methanol): high solubility | Crystalline form by XRPD after exposure to GVS humidity conditions ([8]; post-GVS XRPD): no changes to form or crystallinity; also recorded: no changes in crystalline form | Hygroscopicity, mass uptake by DVS [3]: about 0.7% | Crystalline form by XRPD after exposure to DVS humidity conditions [3]: no change in crystalline form | 1-week stability test: change in purity (UPLC) ([4]; 40° C./75% RH): no change in purity | 1-week stability test: change to form (XRPD) ([4]; 40° C./75% RH): no change to form | 1-week stability test: change in purity (UPLC) ([4]; 80° C.): no change in purity | 1-week stability test: change to form (XRPD) ([4]; 80° C.): no change to form | Average purity after 1-week stability test (UPLC) ([4]; 80° C. test): 99.3% | 1-week stability test: change in purity (UPLC) ([4]; ambient light): no change in purity | 1-week stability test: change to form (XRPD) ([4]; ambient light): no change to form | Average purity after 1-week stability test (UPLC) ([4]; ambient light test): 99.2% | Average purity after 1-week stability test (UPLC) ([4]; relative humidity test (40° C./75% RH)): 99.2%

C[C@@H]1CCc2ncc(F)cc2[C@H]2CCCN2c2ccn3ncc(c3n2)C(=O)N1 [Form I, (6R,15R)-9-fluoro-15-methyl-2,11,16,20,21,24-hexaazapentacyclo[16.5.2.0^2,6.0^7,12.0^21,25]pentacosa-1(24),7,9,11,18(25),19,22-heptaen-17-one]
Hygroscopicity, mass uptake by GVS ([8]; at 90% RH): about 0.3% | Hygroscopicity, mass uptake by DVS [3]: about 0.7%

C[C@@H]1CCc2ncc(F)cc2[C@H]2CCCN2c2ccn3ncc(c3n2)C(=O)N1.O=S(=O)(O)c1ccccc1 [besylate pattern 1]
Post-stability XRPD: changes to form or crystallinity ([1]; salt recovered from TBME): preferred orientation but no changes to form | Post-stability XRPD: changes to form or crystallinity ([1]; salt recovered from THF): an increase to crystallinity but no changes to form | Post-stability XRPD: changes to form or crystallinity ([1]; salt recovered from ethanol): a decrease in crystallinity

C[C@@H]1CCc2ncc(F)cc2[C@H]2CCCN2c2ccn3ncc(c3n2)C(=O)N1.O=C(O)C[C@H](O)C(=O)O [crystalline L-malate]
Post-stability XRPD: changes to form or crystallinity ([1]; salt recovered from TBME): no change to crystallinity and form

C[C@@H]1CCc2ncc(F)cc2[C@H]2CCCN2c2ccn3ncc(c3n2)C(=O)N1.O=C(O)/C=C/C(=O)O [crystalline fumarate]
Post-stability XRPD: changes to form or crystallinity ([1]; salt recovered from acetone): a slight decrease to crystallinity however, no change to form

CS(=O)(=O)O.C[C@@H]1CCc2ncc(F)cc2[C@H]2CCCN2c2ccn3ncc(c3n2)C(=O)N1 [crystalline mesylate]
Post-stability XRPD: changes to form or crystallinity ([1]; salt recovered from acetone): no changes to crystallinity or form | Post-stability XRPD: changes to form or crystallinity [1, 9]: a slight increase in crystallinity but no changes to form | Post-stability XRPD: changes to form or crystallinity ([1]; salt recovered from methanol): a decrease in crystallinity but no changes to form

C[C@@H]1CCc2ncc(F)cc2[C@H]2CCCN2c2ccn3ncc(c3n2)C(=O)N1.O=C(O)CCC(=O)O [crystalline succinate]
Post-stability XRPD: changes to form or crystallinity ([1]; salt recovered from acetone): a decrease in crystallinity but no change to form

C[C@@H]1CCc2ncc(F)cc2[C@H]2CCCN2c2ccn3ncc(c3n2)C(=O)N1 [edisylate]
Post-stability XRPD: changes to form or crystallinity [1, 9]: become amorphous

C[C@@H]1CCc2ncc(F)cc2[C@H]2CCCN2c2ccn3ncc(c3n2)C(=O)N1.O=C(O)C(=O)O [oxalate]
Post-stability XRPD: changes to form or crystallinity ([1]; salt recovered from ethanol): a change in crystallinity and form | Post-stability XRPD: changes to form or crystallinity ([1]; salt recovered from methanol): no change to crystallinity however, changes to form were seen
